Test results from US12071436B2, “Anti-parasitic compounds and uses thereof” (Memorial Sloan-Kettering Cancer Center, priority 2016, dated 2024).
Like-named read-outs stand apart in the source and are kept apart here.

Legend:
P. falciparum Dd2 = experiment: Anti-plasmodial growth inhibition, SYBR green I-based DNA quantification; type: cell-based; conditions: Plasmodium falciparum, 72 h incubation, n=3
Protocol: (§1) Select compounds described herein were evaluated for structure-activity analyses for anti-plasmodial activity in vitro. For Dd2 EC50 (M), calculations were for n=3. For HepG2 EC50 (M), calculations were for n=1. For the human microsomal stability determination, t was 60 minutes.
Different dilutions of the compound in RPMI 1640 (Life Technologies) from a stock of 10 mM in dimethyl sulfoxide (DMSO) were added to the culture at a 1% parasitemia and 2% hematocrit in 96-well black plates (Santa Cruz Biotechnology). Maximum DMSO concentration in the culture never exceeded 0.25%. Chloroquine at 1 μM was used as a positive control to determine the baseline value. Following 72 h incubation at 37° C., the ability of the compounds to inhibit growth of the parasite was determined by a SYBR green I-based DNA quantification assay (See Bennett et al., 2004, Chemother. 48, 1807-1810; see also Johnson et al., 2007, Antimicrob. Agents. Chemother. 51, 1926-1933; Smilkstein et al., 2004, Antimicrob. Agents. Chemother. 48, 1803-1806). EC50 was calculated (n=3) from a dose response curve that was generated from a concentration range of 0-20 μM using GraphPad Prism v5.0.

[1] = Plasma pharmacokinetics and liver distribution study in female BALB/c mice; type: in vivo, mouse; conditions: 100 mg/kg, female BALB/c mice; for Tmax: mouse, plasma, read-out: Tmax (plasma)
Protocol: A plasma pharmacokinetics and liver distribution study of selected compounds, including Pyrrolopyridine-008 (2015-foleyc-216), Pyrrolopyridine-D20-ent (2015-foleyc-217), and Pyrrolopyridine-M03 (2015-foleyc-218), in female BALB/c mice was conducted following a single intraperitoneal and oral administration. […] The blood samples were collected from a set of […] mice at each time point in labeled micro centrifuge tube containing K2EDTA as anticoagulant. Plasma samples were separated by centrifugation at 4000 rpm for 10 min and stored below −70° C. until bioanalysis. After collection of blood sample, animals were humanely euthanized by carbon dioxide asphyxiation to collect liver from Group 1 and Group 2 at all the time points. The collected tissues were rinsed in PBS and were homogenized with nine times of liver weight in ice cold phosphate buffer saline (pH 7.4) and stored below −70° C. until bio-analysis. Total homogenate volume was ten times the tissue weight. All samples were processed for analysis by protein precipitation using acetonitrile and analyzed with fit-for-purpose LC-MS/MS method (LLOQ: 2.01 ng/mL for plasma and 50.30 ng/g for liver). Pharmacokinetic parameters were calculated using the non-compartmental analysis tool of Phoenix WinNonlin® (Version 6.3).

[2] = system: HepG2 human hepatoma cells; experiment: HepG2 cytotoxicity, MTS cell proliferation assay; type: cell-based; conditions: 48 h, n=1
Protocol: as §1
Selected compounds were evaluated for cytotoxicity using HepG2 human hepatoma cells. A 384-well clear bottom plate was seeded with 2,500 cells/well and incubated for 24 h. Serial dilutions of the compound (were added to the plate and plates were incubated for an additional 48 h. Viability of cells were assessed by MTS [(3-(4,5-dimethylthiazol-2-yl)-5-(3-carboxymethoxyphenyl)-2-(4-sulfophenyl)-2H-tetrazolium) cell proliferation assay (CellTiter 96® Aqueous non-radioactive cell proliferation assay, Promega) (See Cory et al., Cancer Communications, 3, 1991, p. 207-212).

[3] = system: Trypanosoma cruzi parasites; experiment: Trypanosoma cruzi in vitro IC50 (structure-activity analyses); type: cell-based; conditions: infection with Trypanosoma cruzi parasites for 72 hours and treatment with the compound for 72 hours
Protocol: Select compounds described herein were evaluated for structure-activity analyses in vitro.

Cytotoxicity (Table 1) = type: cell-based
[4] = ip, single intraperitoneal dose

Row | EC50 (P. falciparum Dd2) [µM] | IC50 [3] [µM] | Compound | EC50 [2] [µM] | Cytotoxicity (Cytotoxicity (Table 1)) [µM] | also measured
1 | 10.2 ± 0.94 |  | CC(C)NC(=O)N1Cc2cc(C(=O)NCc3ccccc3F)nc(-c3cccc(-c4cc5ccccc5o4)c3)c2[C@H]1CCO [2015-foleyc-268, (R)-4-(3-(benzofuran-2-yl)phenyl)-N^6-(2-fluorobenzyl)-3-(2-hydroxyethyl)-N^2-isopropyl-1,3-dihydro-2H-pyrrolo[3,4-c]pyridine-2,6-dicarboxamide] | > 100 |  | 
2 |  | > 10 | CCOC(=O)c1cc2c(c(-c3cccc(Br)c3)n1)[C@@H](CCO)N([S@+]([O-])C(C)(C)C)C2 [Compound 51, Ethyl (R)-4-(3-bromophenyl)-2-((R)-tert-butylsulfinyl)-3-(2-hydroxyethyl)-2,3-dihydro-1H-pyrrolo[3,4-c]pyridine-6-carboxylate] |  | >10 | 
3 |  | 0.495 | CN(C)CC#Cc1cccc(-c2nc(C(=O)NCc3ccc4c(c3)OCO4)cc3c2CN([S@+]([O-])C(C)(C)C)C3)c1 [Compound 57, (R)-N-(Benzo[d][1,3]dioxol-5-ylmethyl)-2-(tert-butylsulfinyl)-4-(3-(3-(dimethylamino)prop-1-yn-1-yl)phenyl)-2,3-dihydro-1H-pyrrolo[3,4-c]pyridine-6-carboxamide] |  | >10 | 
4 |  | > 10 | CC(C)(C)[S@@+]([O-])N1Cc2cc(C(=O)NCc3ccc4c(c3)OCO4)nc(-c3cccc(Br)c3)c2[C@H]1CCO [Compound 77, (R)-N-(Benzo[d][1,3]dioxol-5-ylmethyl)-4-(3-bromophenyl)-2-((R)-tert-butylsulfinyl)-3-(2-hydroxyethyl)-2,3-dihydro-1H-pyrrolo[3,4-c]pyridine-6-carboxamide] |  | >10 | 
5 |  | 0.0437 | CN(C)CC#Cc1cccc(-c2nc(C(=O)NCc3ccc4c(c3)OCO4)cc3c2[C@@H](CCO)N([S@@+]([O-])C(C)(C)C)C3)c1 [Compound 85, (R)-N-(Benzo[d][1,3]dioxol-5-ylmethyl)-2-((S)-tert-butylsulfinyl)-4-(3-(3-(dimethyl-amino)prop-1-yn-1-yl)phenyl)-3-(2-hydroxyethyl)-2,3-dihydro-1H-pyrrolo[3,4-c]pyridine-6-carboxamide] |  | >10 | 
6 |  | 2.85 | CC(C)(C)[S@@+]([O-])N1Cc2cc(C(=O)N[C@@H]3CCN(Cc4ccccc4)C3)nc(-c3cccc(Br)c3)c2[C@H]1CCO [Compound 86, (R)-N-((R)-1-Benzylpyrrolidin-3-yl)-4-(3-bromophenyl)-2-((R)-tert-butylsulfinyl)-3-(2-hydroxyethyl)-2,3-dihydro-1H-pyrrolo[3,4-c]pyridine-6-carboxamide] |  | >10 | 
7 |  | 0.028 | CN(C)CC#Cc1cccc(-c2nc(C(=O)N[C@H]3CCN(Cc4ccccc4)C3)cc3c2[C@@H](CCO)N([S@+]([O-])C(C)(C)C)C3)c1 [Compound 89, (R)-N-((S)-1-benzylpyrrolidin-3-yl)-2-((R)-tert-butylsulfinyl)-4-(3-(3-(dimethylamino)prop-1-yn-1-yl)phenyl)-3-(2-hydroxyethyl)-2,3-dihydro-1H-pyrrolo[3,4-c]pyridine-6-carboxamide] |  | >10 | 
8 |  | 8.5 | CCOC(=O)c1cc2c(c(-c3cccc(C#CCN(C)C)c3)n1)[C@@H](CCO)N([S@+]([O-])C(C)(C)C)C2 [Compound 90, Ethyl (R)-2-((R)-tert-butylsulfinyl)-4-(3-(3-(dimethylamino)prop-1-yn-1-yl)phenyl)-3-(2-hydroxyethyl)-2,3-dihydro-1H-pyrrolo[3,4-c]pyridine-6-carboxylate] |  | >10 | 

Continued, compound first:

Row | Compound | EC50 (P. falciparum Dd2) [µM] | IC50 [3] [µM] | EC50 [2] [µM] | Cytotoxicity (Cytotoxicity (Table 1)) [µM] | also measured
9 | CC(C)(C)[S@@+]([O-])N1Cc2cc(C(=O)NCc3ccc4c(c3)OCO4)nc(-c3ccccc3)c2[C@H]1CCO [2015-foleyc-217, (R)-N-(benzo[d][1,3]dioxol-5-ylmethyl)-2-((R)-tert-butylsulfinyl)-3-(2-hydroxyethyl)-4-phenyl-2,3-dihydro-1H-pyrrolo[3,4-c]pyridine-6-carboxamide] | 2.19 ± 0.32 |  | 63 |  | Tmax [1, 4]: 60 min; Tmax ([1]; single oral dose): 30 min; plasma concentrations quantifiable till ([1]; single intraperitoneal dose): 12 h; plasma concentrations quantifiable till ([1]; single oral dose): 12 h
10 | CC(C)(C)[S@@+]([O-])N1Cc2cc(C(=O)NCc3ccccc3F)nc(-c3ccccc3)c2[C@H]1CCO [2015-foleyc-218, (R)-2-((R)-tert-butylsulfinyl)-N-(2-fluorobenzyl)-3-(2-hydroxyethyl)-4-phenyl-2,3-dihydro-1H-pyrrolo[3,4-c]pyridine-6-carboxamide] | 1.45 ± 0.28 |  | > 100 |  | Tmax [1, 4]: 60 min; Tmax ([1]; single oral dose): 30 min; plasma concentrations quantifiable till ([1]; single intraperitoneal dose): 12 h; plasma concentrations quantifiable till ([1]; single oral dose): 12 h
11 | CC(C)NC(=O)N1Cc2cc(C(N)=O)nc(-c3cccc(-c4cc5ccccc5o4)c3)c2[C@H]1CCO [2015-foleyc-248, (R)-4-(3-(benzofuran-2-yl)phenyl)-3-(2-hydroxyethyl)-N^2-isopropyl-1,3-dihydro-2H-pyrrolo[3,4-c]pyridine-2,6-dicarboxamide] | > 25 |  | > 100 |  | 
12 | CC(C)NC(=O)N1Cc2cc(C(=O)NCc3ccc4c(c3)OCO4)nc(-c3cccc(-c4cccnc4)c3)c2[C@H]1CCO [2015-foleyc-253, (R)-N^6-(benzo[d][1,3]dioxol-5-ylmethyl)-3-(2-hydroxyethyl)-N^2-isopropyl-4-(3-(pyridin-3-yl)phenyl)-1,3-dihydro-2H-pyrrolo[3,4-c]pyridine-2,6-dicarboxamide] | 5.73 ± 0.33 |  | 62 |  | 
13 | CC(C)NC(=O)N1Cc2cc(C(=O)NCc3ccccc3F)nc(-c3cccc(-c4cccnc4)c3)c2[C@H]1CCO [2015-foleyc-254, (R)-N^6-(2-fluorobenzyl)-3-(2-hydroxyethyl)-N^2-isopropyl-4-(3-(pyridin-3-yl)phenyl)-1,3-dihydro-2H-pyrrolo[3,4-c]pyridine-2,6-dicarboxamide] | 9.95 ± 0.89 |  | 71 |  | 
14 | CC(C)NC(=O)N1Cc2cc(C(=O)NCC(F)(F)F)nc(-c3cccc(-c4cccnc4)c3)c2[C@H]1CCO [2015-foleyc-255, (R)-3-(2-hydroxyethyl)-N2-isopropyl-4-(3-(pyridin-3-yl)phenyl)-N6-(2,2,2-trifluoroethyl)-1,3-dihydro-2H-pyrrolo[3,4-c]pyridine-2,6-dicarboxamide] | 15.5 ± 0.75 |  | > 100 |  | 
15 | CC(C)NC(=O)N1Cc2cc(C(=O)NCC(F)(F)F)nc(-c3ccccc3)c2[C@H]1CCO [2015-foleyc-267, (R)-3-(2-hydroxyethyl)-N^2-isopropyl-4-phenyl-N^6-(2,2,2-trifluoroethyl)-1,3-dihydro-2H-pyrrolo[3,4-c]pyridine-2,6-dicarboxamide] | 3.5 ± 0.97 |  | > 100 |  | 
16 | CCOC(=O)c1cc2c(c(-c3cccc(C#CCN(C)C)c3)n1)CN([S@+]([O-])C(C)(C)C)C2 [Compound 49, Ethyl (R)-2-(tert-butylsulfinyl)-4-(3-(3-(dimethylamino)prop-1-yn-1-yl)phenyl)-2,3-dihydro-1H-pyrrolo[3,4-c]pyridine-6-carboxylate] |  | 0.862 |  | >10 | 
